Here are results for 2 compounds from PMC10400579, “FDW028, a novel FUT8 inhibitor, impels lysosomal proteolysis of B7-H3 via chaperone-mediated autophagy pathway and exhibits potent efficacy against metastatic colorectal cancer” (Cell Death & Disease, 2023).

Structures are written as SMILES.

The target of assay [1] is T1, Fucosyltransferase 8 (FUT8) (Homo sapiens, UniProt Q9BYC5).
T1 sequence (Q9BYC5 31-575): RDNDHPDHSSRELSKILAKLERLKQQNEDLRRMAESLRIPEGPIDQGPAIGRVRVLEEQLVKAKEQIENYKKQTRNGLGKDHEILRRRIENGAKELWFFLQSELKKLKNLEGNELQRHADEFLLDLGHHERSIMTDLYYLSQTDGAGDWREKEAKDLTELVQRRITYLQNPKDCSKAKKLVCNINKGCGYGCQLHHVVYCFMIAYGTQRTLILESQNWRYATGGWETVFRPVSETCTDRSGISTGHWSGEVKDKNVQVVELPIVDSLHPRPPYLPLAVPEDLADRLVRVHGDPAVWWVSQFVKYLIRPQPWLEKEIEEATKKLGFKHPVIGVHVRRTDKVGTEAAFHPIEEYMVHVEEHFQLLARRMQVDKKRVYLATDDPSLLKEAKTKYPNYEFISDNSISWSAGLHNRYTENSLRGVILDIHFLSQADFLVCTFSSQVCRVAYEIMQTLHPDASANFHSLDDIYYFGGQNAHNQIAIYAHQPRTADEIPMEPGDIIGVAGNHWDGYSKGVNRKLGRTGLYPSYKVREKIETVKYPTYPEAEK
Nature of the assay: grating-coupled interferometry (GCI) with immobilized FUT8; supported by thermal shift of FUT8-Flag from SW480 cells (Tm +[…] °C at […]). In kind it is binding.

The target in assay [2] is T2, Fucosyltransferase 8 (FUT8) (Homo sapiens, UniProt Q9BYC5).
T2 construct: FUT8-Flag
T2 sequence (Q9BYC5 1-575): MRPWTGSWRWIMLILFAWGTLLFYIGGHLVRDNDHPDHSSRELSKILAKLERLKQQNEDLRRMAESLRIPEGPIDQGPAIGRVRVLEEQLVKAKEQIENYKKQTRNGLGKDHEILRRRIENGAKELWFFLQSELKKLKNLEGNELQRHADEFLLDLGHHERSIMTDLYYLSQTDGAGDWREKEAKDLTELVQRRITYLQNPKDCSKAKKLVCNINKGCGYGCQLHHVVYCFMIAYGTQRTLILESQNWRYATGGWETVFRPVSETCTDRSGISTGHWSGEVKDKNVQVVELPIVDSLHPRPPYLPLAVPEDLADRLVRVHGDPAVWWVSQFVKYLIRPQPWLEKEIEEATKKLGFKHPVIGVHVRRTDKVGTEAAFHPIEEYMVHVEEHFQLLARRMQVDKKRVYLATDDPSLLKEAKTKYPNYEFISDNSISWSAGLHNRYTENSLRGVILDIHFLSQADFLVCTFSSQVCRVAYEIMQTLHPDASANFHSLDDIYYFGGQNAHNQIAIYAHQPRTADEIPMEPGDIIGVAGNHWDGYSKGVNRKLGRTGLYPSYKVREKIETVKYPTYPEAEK
Nature of the assay: streptavidin pulldown from SW480 lysate with […] probe, western blot and LC-MS/MS. Format: cell-based. Background: In western blotting, separated proteins are transferred to a membrane and probed.

One may read the Kd as the concentration at which binding is half-saturated. Take `CCc1ccc(CNc2nc3nc(CNCc4ccccc4)cc(O)n3n2)cc1` [D2-1c, FDW028]: the dissociation constant (Kd) in assay [1] was found to be 5.49 µM. Take `CCc1ccc(CNc2nc3nc(CN(Cc4ccccc4)C(=O)CCOCCOCCOCCOCCOCCOCCNC(=O)CCCC[C@@H]4SC[C@@H]5NC(=O)N[C@@H]54)cc(O)n3n2)cc1` [FDW028-PEG6-biotin]: in assay [2], the “streptavidin pulldown from SW480 lysate with 0.2 mM probe, western blot and LC-M” value was “much more FUT8-Flag was pulled down by FDW028-PEG6-biotin than the control”.
